# Target: T1, Na+/K+-ATPase
# T1 construct: gene ATP1A1
# Assay: in vitro enzymatic assay, inorganic phosphate release during ATP hydrolysis (Taussky-Shorr, […] nm)
# Type: biochemical
structure (smiles),measurement,value
C[C@H]1O[C@@H](O[C@H]2[C@@H](O)C[C@H](O[C@H]3[C@@H](O)C[C@H](O[C@H]4CC[C@@]5(C)[C@H](CC[C@@H]6[C@@H]5CC[C@]5(C)[C@@H](C7=CC(=O)OC7)CC[C@]65O)C4)O[C@@H]3C)O[C@@H]2C)C[C@H](O)[C@@H]1O [Digitoxin],EC50,780 nM

# — article PMC6274445, “Compound Library Screening Identified Cardiac Glycoside Digitoxin as an Effective Growth Inhibitor of Gefitinib-Resistant Non-Small Cell Lung Cancer via Downregulation of α-Tubulin and Inhibition of Microtubule Formation” (Molecules, 2016)
